Reference: patent publication US20030139431A1 (priority 2001, published 2003)
Counter-ions that a name gives are not always drawn.

Tests used:
rNPFF1 [1] = molecular target: T1, rNPFF1 (Rattus norvegicus, UniProt Q9EP86); assay: Binding affinity at cloned recombinant rat NPFF1 receptor
T1 construct: expressed in transfected cells

rNPFF1 [2] = molecular target: T1, rNPFF1; assay: Functional assay (agonist potency, intrinsic activity) at cloned rat NPFF1 receptor; assay type: cell-based; settings: for rNPFF1 IA (intrinsic activity): percent of maximum response elicited by neuropeptide FF, rat NPFF1; for EC50: recombinant rat NPFF1
Description: (§1) Intrinsic activity of a compound is measured as the percent of maximum response.

rNPFF2 [3] = molecular target: T2, rNPFF2 (Rattus norvegicus, UniProt Q9EQD2); assay: Binding affinity at cloned recombinant rat NPFF2 receptor
T2 construct: expressed in transfected cells
T2 sequence (Q9EQD2 whole entry): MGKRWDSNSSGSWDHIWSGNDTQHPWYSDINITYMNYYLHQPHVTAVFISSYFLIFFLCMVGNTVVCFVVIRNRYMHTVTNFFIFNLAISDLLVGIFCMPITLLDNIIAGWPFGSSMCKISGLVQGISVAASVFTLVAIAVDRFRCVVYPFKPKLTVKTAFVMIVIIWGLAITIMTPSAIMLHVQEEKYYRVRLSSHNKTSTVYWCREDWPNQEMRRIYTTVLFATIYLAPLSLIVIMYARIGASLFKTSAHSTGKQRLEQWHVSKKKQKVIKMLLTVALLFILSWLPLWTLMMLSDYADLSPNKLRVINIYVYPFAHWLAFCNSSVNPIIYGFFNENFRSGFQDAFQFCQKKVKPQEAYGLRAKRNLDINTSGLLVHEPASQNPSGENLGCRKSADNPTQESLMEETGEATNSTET

rNPFF2 [4] = molecular target: T2, rNPFF2; assay: Functional assay (agonist potency, intrinsic activity) at cloned rat NPFF2 receptor; assay type: cell-based; settings: for rNPFF2 IA (intrinsic activity): percent of maximum response elicited by neuropeptide FF, rat NPFF2; for EC50: recombinant rat NPFF2
Description: as §1

[5] = system: distention induced contractions of the rat bladder; assay: Distension-induced rhythmic contraction (DIRC) model, micturition reflex in anesthetized rats; assay type: in vivo; settings: i.v.; for duration of inhibition of bladder activity (figure legend): dose not printed in legend
Description: The effects of compounds on the micturition reflex were assessed in the “distension-induced rhythmic contraction” (DIRC) model (also called “volume-induced rhythmic contraction” model) in rats, as described in previous publications (36, 38, 40). This model is widely considered to be predictive for the actions of drugs to treat human urge incontinence (also referred to as detrusor instability or unstable bladder). Examples of drugs that are active in this model which also are used therapeutically in humans include oxybutynin and baclofen (40); imipramine and nortriptyline (37); and nifedipine and terodiline (38).
Female Sprague Dawley rats weighing approximately 300 g were anesthetized with subcutaneous urethane (1.2 g/kg) The trachea was cannulated with PE240 tubing to provide a clear airway throughout the experiment. A midline abdominal incision was made and the left and right ureters were isolated. The ureters were ligated distally (to prevent escape of fluids from the bladder) and cannulated proximally with PE10 tubing. The incision was closed using 4-0 silk sutures, leaving the PE10 lines routed to the exterior for the elimination of urine. The bladder was canulated via the transurethral route using PE50 tubing inserted 2.5 cm beyond the urethral opening. This cannula was secured to the tail using tape and connected to a pressure transducer. To prevent leakage from the bladder, the cannula was tied tightly to the exterior urethral opening using 4-0 silk.
To initiate the micturition reflex, the bladder was first emptied by applying pressure to the lower abdomen, and then filled with normal saline in 100 μL increments (maximum=2 ml) until spontaneous bladder contractions occurred (typically 20-40 mmHg) at a rate of one contraction every 2 to 3 minutes. Once a regular rhythm was established, vehicle (saline) or test compounds were administered i.v. to examine their effects on bladder activity. The effect of a compound which inhibited the micturition reflex was expressed as its “disappearance time”, defined as the time between successive bladder contractions in the presence of the test compound minus the time between contractions before compound administration.

hNPFF2 [6] = molecular target: T3, hNPFF2 (Homo sapiens, UniProt Q9Y5X5); assay: Binding affinity at cloned recombinant human NPFF2 receptor
T3 construct: expressed in transfected cells
T3 sequence (Q9Y5X5 103-522): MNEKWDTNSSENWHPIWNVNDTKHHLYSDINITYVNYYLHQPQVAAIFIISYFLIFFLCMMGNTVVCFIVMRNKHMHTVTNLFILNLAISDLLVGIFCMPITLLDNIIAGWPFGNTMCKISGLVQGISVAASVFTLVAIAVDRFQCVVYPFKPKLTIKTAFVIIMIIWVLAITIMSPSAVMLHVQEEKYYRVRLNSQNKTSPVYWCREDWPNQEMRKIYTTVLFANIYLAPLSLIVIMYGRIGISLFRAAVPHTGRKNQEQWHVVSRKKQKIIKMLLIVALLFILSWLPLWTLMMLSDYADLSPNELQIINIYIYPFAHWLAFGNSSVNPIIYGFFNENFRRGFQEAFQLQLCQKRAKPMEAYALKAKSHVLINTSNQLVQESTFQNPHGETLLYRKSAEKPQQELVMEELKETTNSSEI

hNPFF1 [7] = molecular target: T4, hNPFF1 (Homo sapiens, UniProt Q9GZQ6); assay: Binding affinity at cloned recombinant human NPFF1 receptor
T4 construct: expressed in transfected cells
T4 sequence (Q9GZQ6 whole entry): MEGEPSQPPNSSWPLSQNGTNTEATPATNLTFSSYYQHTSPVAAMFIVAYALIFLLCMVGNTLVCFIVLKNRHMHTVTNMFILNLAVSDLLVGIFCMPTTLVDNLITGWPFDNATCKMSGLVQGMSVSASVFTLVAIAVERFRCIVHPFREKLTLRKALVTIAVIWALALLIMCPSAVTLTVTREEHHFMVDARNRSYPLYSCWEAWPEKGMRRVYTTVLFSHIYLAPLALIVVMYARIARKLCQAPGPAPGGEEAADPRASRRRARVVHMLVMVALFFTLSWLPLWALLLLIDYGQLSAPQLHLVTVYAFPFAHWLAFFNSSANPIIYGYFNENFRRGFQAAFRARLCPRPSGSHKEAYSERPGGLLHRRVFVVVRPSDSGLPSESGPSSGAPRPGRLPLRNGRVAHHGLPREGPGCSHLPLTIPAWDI

hNPFF1 [8] = molecular target: T4, hNPFF1; assay: Functional assay (agonist potency, intrinsic activity) at cloned human NPFF1 receptor; assay type: cell-based; settings: for hNPFF1 IA (intrinsic activity): percent of maximum response elicited by neuropeptide FF, human NPFF1; for EC50: recombinant human NPFF1
Description: as §1

hNPFF2 [9] = molecular target: T3, hNPFF2; assay: Functional assay (agonist potency, intrinsic activity) at cloned human NPFF2 receptor; assay type: cell-based; settings: for hNPFF2 IA (intrinsic activity): percent of maximum response elicited by neuropeptide FF, human NPFF2; for EC50: recombinant human NPFF2
Description: as §1

T1 sequence (Q9EP86 whole entry): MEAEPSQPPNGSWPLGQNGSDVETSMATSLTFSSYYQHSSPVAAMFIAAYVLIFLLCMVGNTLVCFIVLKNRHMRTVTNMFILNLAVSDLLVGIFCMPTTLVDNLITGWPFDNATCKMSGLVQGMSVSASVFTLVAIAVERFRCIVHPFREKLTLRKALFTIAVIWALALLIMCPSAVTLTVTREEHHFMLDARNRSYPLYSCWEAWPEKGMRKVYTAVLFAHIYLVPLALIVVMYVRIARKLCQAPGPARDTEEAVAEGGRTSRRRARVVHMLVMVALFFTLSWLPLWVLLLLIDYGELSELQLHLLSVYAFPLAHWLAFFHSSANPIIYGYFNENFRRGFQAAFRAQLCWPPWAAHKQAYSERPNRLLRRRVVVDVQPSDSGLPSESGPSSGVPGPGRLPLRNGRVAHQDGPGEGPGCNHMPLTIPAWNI

Structure (SMILES) | melting point | Ki (rNPFF1 [1]) | rNPFF1 IA (intrinsic activity) (rNPFF1 [2]) | EC50 (rNPFF1 [2]) | Ki (rNPFF2 [3]) | rNPFF2 IA (intrinsic activity) (rNPFF2 [4]) | EC50 (rNPFF2 [4]) | disappearance time ([5]; 1 mg/kg) | inhibition of distention induced contractions of the rat bladder ([5]; 1 mg/kg) | duration of inhibition of bladder activity (figure legend) [5] | Ki (hNPFF2 [6]) | Ki (hNPFF1 [7]) | disappearance time ([5]; 3 mg/kg) | inhibition of distention induced contractions of the rat bladder ([5]; 3 mg/kg) | hNPFF1 IA (intrinsic activity) (hNPFF1 [8]) | EC50 (hNPFF1 [8]) | hNPFF2 IA (intrinsic activity) (hNPFF2 [9]) | EC50 (hNPFF2 [9])
Cc1nc(NC(=N)N)nc2cc(OCc3ccccc3)ccc12 (as salt: salt) [Compound 1006, N-[7-(benzyloxy)-4-methyl-2-quinazolinyl]guanidine] | 215 to 217 °C (dec.) |  |  |  |  |  |  |  |  |  |  |  |  |  |  |  |  | 
Cc1cc2nc(NC(=N)N)nc(C)c2cc1O (as salt: salt) [Compound 1017, N-(6-hydroxy-4,7-dimethyl-2-quinazolinyl)guanidine] | 246 to 248 °C (dec.) |  |  |  |  |  |  |  |  |  |  |  |  |  |  |  |  | 
Cc1nc(NC(=N)N)nc2cc(C(C)(C)C)ccc12 [Compound 1022, N-[7-(tert-butyl)-4-methyl-2-quinazolinyl]guanidine] | 195 to 198 °C (dec.) | 126 nM | 19% NPFF | 3160 nM | 602 nM | 81% NPFF | 190 nM |  |  |  |  |  |  |  |  |  |  | 
Cc1nc(NC(=N)N)nc2cc3c(cc12)CCC3 [Compound 1038, N-(4-methyl-7,8-dihydro-6H-cyclopenta[g]quinazolin-2-yl)guanidine] | 295 to 298 °C (dec.) | 95 nM | Inactive | > 10000 nM | 602 nM | 74% NPFF | 48 nM |  |  |  |  |  |  |  |  |  |  | 
Cc1cc(NC(=N)N)nc2ccc(Cl)cc12 [Compound 4005, N-(6-chloro-4-methyl-2-quinolinyl)guanidine] |  | 25 nM | Inactive | > 10000 nM | 282 nM | 61% NPFF | 389 nM | 35 min | complete inhibition | 35 min | 123 nM | 24 nM |  |  |  |  |  | 
Cc1ccc2c(C)cc(NC(=N)N)nc2c1 [Compound 4006, N-(4,7-dimethyl-2-quinolinyl)guanidine] |  | 7 nM | Inactive | > 10000 nM | 185 nM | 32% NPFF | 269 nM |  |  | 12 min | 91 nM | 13 nM | 12 min | complete inhibition | Inactive | > 10000 nM | Inactive | > 10000 nM
Cc1cc(NC(=N)N)nc2ccccc12 [Compound 6001, N-(4-methyl-2-quinolinyl)guanidine] |  | 11 nM | Inactive | > 10000 nM | 433 nM | Inactive | > 10000 nM |  |  |  | 374 nM | 23 nM |  |  | Inactive | > 10000 nM | Inactive | > 10000 nM
